Measured values: patent US10736883B2, “Triazole furan compounds as agonists of the APJ receptor” (AMGEN INC., priority 2016, dated 2020)

biological target: APJ receptor (Homo sapiens (Human), UniProt P35414); test: [35S]GTPγS binding assay on membranes from CHO cells stably expressing human APJ receptor; format: biochemical; conditions: membranes of CHO cells stably expressing human APJ receptor, means of several independent experiments, read-out: Activity hAPJ SPA EC50 IP
Method in brief: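 EC50 values were obtained by non-linear regression of [35S]GTPγS (0.2 nM) binding after 90 min at RT, with nonspecific binding defined by 100 μM GTPγS. Reactions used human APJ–expressing CHO cell membranes on WGA PS beads in HEPES pH 7.5 buffer with 5 mM MgCl2, 200 mM NaCl, 3 μM GDP and 0.1% BSA.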

Chain of APJ receptor (P35414 whole entry): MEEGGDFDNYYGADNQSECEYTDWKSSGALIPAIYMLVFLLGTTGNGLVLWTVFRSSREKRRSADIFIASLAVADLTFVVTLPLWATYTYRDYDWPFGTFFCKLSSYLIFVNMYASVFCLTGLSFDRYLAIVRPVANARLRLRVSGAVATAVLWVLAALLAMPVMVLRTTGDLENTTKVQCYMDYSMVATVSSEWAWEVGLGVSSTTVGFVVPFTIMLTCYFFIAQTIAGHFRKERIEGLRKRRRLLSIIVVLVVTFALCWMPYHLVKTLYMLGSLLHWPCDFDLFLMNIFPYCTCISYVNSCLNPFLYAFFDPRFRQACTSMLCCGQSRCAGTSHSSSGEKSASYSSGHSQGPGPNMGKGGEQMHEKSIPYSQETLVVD

In order of falling EC50:
1. C[C@@H](Cc1ncc(F)cn1)S(=O)(=O)Nc1nnc(-c2ccco2)n1-c1ccccc1C(F)(F)F [Example 318.0, (2S)-1-(5-Fluoro-2-pyrimidinyl)-N-(5-(2-furanyl)-4-(2-(trifluoromethyl)phenyl)-4H-1,2,4-triazol-3-yl)-2-propanesulfonamide and (2S)-1-(5-fluoro-2-pyrimidinyl)-N-(5-(2-furanyl)-4-(2-(trifluoromethyl)phenyl)-4H-1,2,4-triazol-3-yl)-2-propanesulfonamide]  420000 pM
2. COc1cccc(OC)c1-n1c(NS(=O)(=O)[C@@H](C)[C@H](C)c2ncc(F)cn2)nnc1-c1ccc(C)o1 (racemic) [Example 135.0]  16000 pM
3. COc1cccc(OC)c1-n1c(NS(=O)(=O)[C@H](C)Cc2ccc(C)nn2)nnc1-c1ccco1 (single isomer, unassigned) [Example 42.0, (2R)—N-(4-(2,6-dimethoxyphenyl)-5-(2-furanyl)-4H-1,2,4-triazol-3-yl)-1-(6-methyl-3-pyridazinyl)-2-propanesulfonamide or (2S)—N-(4-(2,6-dimethoxyphenyl)-5-(2-furanyl)-4H-1,2,4-triazol-3-yl)-1-(6-methyl-3-pyridazinyl)-2-propanesulfonamide]  12000 pM
4. COc1ncnc(OC)c1-n1c(NS(=O)(=O)CCc2ccc(F)cc2C#N)nnc1-c1ccco1 [Example 252.0, 2-(2-Cyano-4-fluorophenyl)-N-(4-(4,6-dimethoxy-5-pyrimidinyl)-5-(2-furanyl)-4H-1,2,4-triazol-3-yl)ethanesulfonamide]  9700 pM
5. COc1cccc(OC)c1-n1c(NS(=O)(=O)[C@H](C)[C@@H](O)c2cnc3ccccn23)nnc1-c1ccc(C)o1 (single isomer, unassigned) [Example 294.0, (1R,2S)—N-(4-(2,6-Dimethoxyphenyl)-5-(5-methyl-2-furanyl)-4H-1,2,4-triazol-3-yl)-1-hydroxy-1-imidazo[1,2-a]pyridin-3-yl-2-propanesulfonamide or (1S,2R)—N-(4-(2,6-dimethoxyphenyl)-5-(5-methyl-2-furanyl)-4H-1,2,4-triazol-3-yl)-1-hydroxy-1-imidazo[1,2-a]pyridin-3-yl-2-propanesulfonamide]  5800 pM
6. COc1cccc(OC)c1-n1c(NS(=O)(=O)[C@@H](C)[C@H](O)c2cn3ccccc3n2)nnc1-c1ccc(C)o1 (single isomer, unassigned) [Example 289.0, (1R,2S)—N-(4-(2,6-Dimethoxyphenyl)-5-(5-methyl-2-furanyl)-4H-1,2,4-triazol-3-yl)-1-hydroxy-1-imidazo[1,2-a]pyridin-2-yl-2-propanesulfonamide or (1S,2R)—N-(4-(2,6-dimethoxyphenyl)-5-(5-methyl-2-furanyl)-4H-1,2,4-triazol-3-yl)-1-hydroxy-1-imidazo[1,2-a]pyridin-2-yl-2-propanesulfonamide]  4900 pM
7. COc1cccc(OC)c1-n1c(NS(=O)(=O)CCc2ccc(C#N)cn2)nnc1-c1ccco1 [Example 35.0, 2-(5-cyano-2-pyridinyl)-N-(4-(2,6-dimethoxyphenyl)-5-(2-furanyl)-4H-1,2,4-triazol-3-yl)ethanesulfonamide]  3500 pM
8. (1R,2R)-N-(4-(2,6-dimethoxyphenyl)-5-(5-methyl-2-furanyl)-4H-1,2,4-triazol-3-yl)-1-methoxy-1-(5-methyl-2-pyrimidinyl)-2-propanesulfonamide or (1S,2S)-N-(4-(2,6-dimethoxyphenyl)-5-(5-methyl-2-furanyl)-4H-1,2,4-triazol-3-yl)-1-methoxy-1-(5-methyl-2-pyrimidinyl)-2-propanesulfonamide [Example 250.0]  3300 pM
9. COc1cccc(OC)c1-n1c(NS(=O)(=O)[C@@H]2C[C@@H](c3ccc(F)cc3)CN(C(C)=O)C2)nnc1-c1ccc(C)o1 (single isomer, unassigned) [Example 171.0, (3R,5S)-1-Acetyl-N-(4-(2,6-dimethoxyphenyl)-5-(5-methyl-2-furanyl)-4H-1,2,4-triazol-3-yl)-5-(4-fluorophenyl)-3-piperidinesulfonamide or (3S,5R)-1-acetyl-N-(4-(2,6-dimethoxyphenyl)-5-(5-methyl-2-furanyl)-4H-1,2,4-triazol-3-yl)-5-(4-fluorophenyl)-3-piperidinesulfonamide]  1200 pM
10. COc1cccc(OC)c1-n1c(NS(=O)(=O)[C@@H](C)Cc2ncc(F)c3[nH]cnc23)nnc1-c1ccco1 (single isomer, unassigned) [Example 5.0, (2S)—N-(4-(2,6-dimethoxyphenyl)-5-(2-furanyl)-4H-1,2,4-triazol-3-yl)-1-(7-fluoro-1H-imidazo[4,5-c]pyridin-4-yl)-2-propanesulfonamide or (2R)—N-(4-(2,6-dimethoxyphenyl)-5-(2-furanyl)-4H-1,2,4-triazol-3-yl)-1-(7-fluoro-1H-imidazo[4,5-c]pyridin-4-yl)-2-propanesulfonamide]  950 pM
11. COc1cccc(OC)c1-n1c(NS(=O)(=O)[C@@H](C)Cc2ncc(F)c(C)n2)nnc1-c1ccco1 (racemic) [Example 234.0, (2S)—N-(4-(2,6-Dimethoxyphenyl)-5-(2-furanyl)-4H-1,2,4-triazol-3-yl)-1-(5-fluoro-4-methyl-2-pyrimidinyl)-2-propanesulfonamide and (2R)—N-(4-(2,6-dimethoxyphenyl)-5-(2-furanyl)-4H-1,2,4-triazol-3-yl)-1-(5-fluoro-4-methyl-2-pyrimidinyl)-2-propanesulfonamide]  540 pM
12. COc1cccc(OC)c1-n1c(NS(=O)(=O)CCN2C(=O)N(C)CC[C@H]2C)nnc1-c1ccc(C)o1 (mixture of isomers) [Example 160.0, N-(4-(2,6-Dimethoxyphenyl)-5-(5-methyl-2-furanyl)-4H-1,2,4-triazol-3-yl)-2-((6R)-3,6-dimethyl-2-oxotetrahydro-1 (2H)-pyrimidinyl)ethanesulfonamide and N-(4-(2,6-dimethoxyphenyl)-5-(5-methyl-2-furanyl)-4H-1,2,4-triazol-3-yl)-2-((6S)-3,6-dimethyl-2-oxotetrahydro-1(2H)-pyrimidinyl)ethanesulfonamide]  500 pM
13. COc1cccc(OC)c1-n1c(NS(=O)(=O)C[C@@H](C)c2ncc(F)cn2)nnc1-c1ccc(C)o1 (single isomer, unassigned) [Example 126.0, (S)—N-(4-(2,6-Dimethoxyphenyl)-5-(5-methylfuran-2-yl)-4H-1,2,4-triazol-3-yl)-2-(5-fluoropyrimidin-2-yl)propane-1-sulfonamide or (R)—N-(4-(2,6-dimethoxyphenyl)-5-(5-methylfuran-2-yl)-4H-1,2,4-triazol-3-yl)-2-(5-fluoropyrimidin-2-yl)propane-1-sulfonamide]  450 pM
14. COc1cccc(OC)c1-n1c(NS(=O)(=O)[C@@H](C)[C@H](O)c2cccc3ccnn23)nnc1-c1ccc(C)o1 (single isomer, unassigned) [Example 267.0, (1R,2S)—N-(4-(2,6-Dimethoxyphenyl)-5-(5-methyl-2-furanyl)-4H-1,2,4-triazol-3-yl)-1-hydroxy-1-pyrazolo[1,5-a]pyridin-7-yl-2-propanesulfonamide or (1S,2R)—N-(4-(2,6-dimethoxyphenyl)-5-(5-methyl-2-furanyl)-4H-1,2,4-triazol-3-yl)-1-hydroxy-1-pyrazolo[1,5-a]pyridin-7-yl-2-propanesulfonamide]  430 pM
15. COc1cccc(OC)c1-n1c(NS(=O)(=O)[C@@H](C)Cc2ncc(Cl)cc2C(N)=O)nnc1-c1ccco1 (single isomer, unassigned) [Example 17.0, 5-chloro-2-((2S)-2-((4-(2,6-dimethoxyphenyl)-5-(2-furanyl)-4H-1,2,4-triazol-3-yl)sulfamoyl)propyl)-3-pyridinecarboxamide or 5-chloro-2-((2R)-2-((4-(2,6-dimethoxyphenyl)-5-(2-furanyl)-4H-1,2,4-triazol-3-yl)sulfamoyl)propyl)-3-pyridinecarboxamide]  260 pM
16. COc1cccc(OC)c1-n1c(NS(=O)(=O)[C@@H](C)[C@H](O)c2cn3ccccc3n2)nnc1-c1ccc(C)o1 (single isomer, unassigned) [Example 265.0, (1R,2S)—N-(4-(2,6-Dimethoxyphenyl)-5-(5-methyl-2-furanyl)-4H-1,2,4-triazol-3-yl)-1-hydroxy-1-imidazo[1,2-a]pyridin-2-yl-2-propanesulfonamide or (1S,2R)—N-(4-(2,6-dimethoxyphenyl)-5-(5-methyl-2-furanyl)-4H-1,2,4-triazol-3-yl)-1-hydroxy-1-imidazo[1,2-a]pyridin-2-yl-2-propanesulfonamide]  180 pM
17. COc1cccc(OC)c1-n1c(NS(=O)(=O)[C@@H](C)[C@@H](O)c2ccc(F)cn2)nnc1-c1ccc(C)o1 (single isomer, unassigned) [Example 59.0]  160 pM
18. COc1cnc([C@@H](O)[C@H](C)S(=O)(=O)Nc2nnc(-c3ccc(C)o3)n2-c2c(OC)cccc2OC)cn1 (single isomer, unassigned) [Example 146.0, (1R, 2S)—N-(4-(2,6-Dimethoxyphenyl)-5-(5-methyl-2-furanyl)-4H-1,2,4-triazol-3-yl)-1-hydroxy-1-(5-methoxy-2-pyrazinyl)-2-propanesulfonamide or (1S, 2R)—N-(4-(2,6-dimethoxyphenyl)-5-(5-methyl-2-furanyl)-4H-1,2,4-triazol-3-yl)-1-hydroxy-1-(5-methoxy-2-pyrazinyl)-2-propanesulfonamide]  130 pM
19. (1S,2R)-N-(4-(2,6-dimethoxyphenyl)-5-(5-methyl-2-furanyl)-4H-1,2,4-triazol-3-yl)-1-hydroxy-1-(5-methyl-2-pyrazinyl)-2-propanesulfonamide or (1R,2S)-N-(4-(2,6-dimethoxyphenyl)-5-(5-methyl-2-furanyl)-4H-1,2,4-triazol-3-yl)-1-hydroxy-1-(5-methyl-2-pyrazinyl)-2-propanesulfonamide [Example 213.0]  120 pM
20. CCO[C@H](c1ncc(C)cn1)[C@H](C)S(=O)(=O)Nc1nnc(-c2ccc(C)o2)n1-c1c(OC)cccc1OC (single isomer, unassigned) [Example 118.0]  84 pM
